Reference: patent US12268710B2, “Method of treating severe forms of pulmonary hypertension” (ReversPAH LLC, priority 2019, dated 2025)
“Also recorded” adds a separate entry of the source. Each block holds one compound with its values, some of them ahead of it.

Tests used:
[1] = system: Sugen/Hypoxia rats (SuHx) with established PAH; assay: Sugen 5416/chronic hypoxia rat model of severe angio-obliterative PAH; assay type: in vivo
Experimental: Specifically, FIGS. 4A and B, which are from the paper which included Norbert F. Voelkel as a senior author, show the compared results of control rats, Sugen/Hypoxia rats (SuHx) with established PAH, and SuHx rats treated with TTM in an amount of 10 mg/kg every other day for 10 days. […] FIG. 5 provides the results, which compares the degree of obliteration of c-kit^+ expressing stem cells in the lung vessels of Sugen/Hypoxia rats (SuHx) treated with a vehicle (SuHx-vehicle) and Sugen/Hypoxia rats treated with TTM (SuHx-TTM) in an amount of 10 mg/kg every other day for 10 days. Third, copper plays a role in the alteration of genes of the cytochrome P450. The lung and, in particular, the lung vascular endothelial cells (EC) are involved in drug metabolism and the handling of toxic substances. It is known that cigarette smoke toxins highly up-regulate the expression of specific drug metabolizing genes, the genes of the cytochrome P450 super-family. There are 56 known cytochrome P450 genes coding for 56 isozymes. These enzymes metabolize 75% of all drugs in use, including all of the vasodilator drugs conventionally used for PAH treatment. These enzymes also are involved in cell growth and differentiation, in cholesterol and estrogen metabolism and for many years a role of these enzymes in the pathogenesis of cancers has been examined (in particular prostate, breast and lung cancer) (Kwapiszewska G et al, Circulation Research, submitted 2019). Norbert F. Voelkel discovered that the drug Sugen 5416, a component of the Sugen-induced rat models of angio-obliterative PAH, induces some of these cytochrome P450 isozyme genes more than 200-fold (Al-Husseini et al, Pulm Circ. 2015 March; 5(1); 101-116). […] Specifically, the vessel lumina are occluded in the not-treated animals (SuHx), whereas they have been reopened after the treated animals (SuHx+TTM) received 10 mg/kg TTM every other day for 10 days. […] The treatment lasted 3 weeks (21 days) with DEC being administered in an amount of 50 mg/kg daily treatment. Norbert F. Voelkel concludes that the anti-inflammatory drug DEC affects developing PAH and is partially effective once angio-obliterative PAH has been established.

[2] = system: patient with pulmonary veno-occlusive disease (PVOD); assay: Low-dose MTX treatment of one patient with pulmonary veno-occlusive disease; assay type: in vivo, human
Excerpt: Another possible co-drug is methotrexate. […] MTX is of particular interest because it is an inhibitor of the enzyme dihydrofolate reductase and thereby inhibits DNA, RNA and protein synthesis, which is the desired action in cancer treatment at high MTX doses. Norbert Voelkel has prescribed MTX for one patient with pulmonary veno-occlusive disease, which is a rare form of severe PH. […] The anti-inflammatory and immune system affecting action of MTX is accomplished with low doses. […] PVOD is a fatal and extremely rare PH disorder. […] Vasodilator-induced lung edema precludes the use of vasodilator drugs in these patients.

rodent models of PH = settings: in vivo; cited from earlier work
[3] = system: cytochrome P450 isozyme genes; assay: Induction of cytochrome P450 isozyme genes by Sugen 5416; settings: Al-Husseini et al, Pulm Circ. 2015
Excerpt: Third, copper plays a role in the alteration of genes of the cytochrome P450. The lung and, in particular, the lung vascular endothelial cells (EC) are involved in drug metabolism and the handling of toxic substances. It is known that cigarette smoke toxins highly up-regulate the expression of specific drug metabolizing genes, the genes of the cytochrome P450 super-family. There are 56 known cytochrome P450 genes coding for 56 isozymes. These enzymes metabolize 75% of all drugs in use, including all of the vasodilator drugs conventionally used for PAH treatment. These enzymes also are involved in cell growth and differentiation, in cholesterol and estrogen metabolism and for many years a role of these enzymes in the pathogenesis of cancers has been examined (in particular prostate, breast and lung cancer) (Kwapiszewska G et al, Circulation Research, submitted 2019). Norbert F. Voelkel discovered that the drug Sugen 5416, a component of the Sugen-induced rat models of angio-obliterative PAH, induces some of these cytochrome P450 isozyme genes more than 200-fold (Al-Husseini et al, Pulm Circ. 2015 March; 5(1); 101-116). […] Specifically, the vessel lumina are occluded in the not-treated animals (SuHx), whereas they have been reopened after the treated animals (SuHx+TTM) received 10 mg/kg TTM every other day for 10 days.

colon cancer = settings: by apoptosis and cellular senescence; cited from earlier work
angiogenesis = settings: high dosage; through the induction of apoptosis; cited from earlier work
[4] = system: monocrotaline-induced pulmonary hypertension; settings: through the bone morphogenetic protein signaling pathway; cited from earlier work
[5] = system: silica-induced lung inflammation and fibrosis; settings: by inhibiting T-helper 17 cell (TH 17); cited from earlier work
[6] = system: Sugen/Hypoxia rats (SuHx) with established PAH; settings: Farkas D. et al 2014; cited from earlier work
[7] = DEC study 2015 (Al Husseini et al)
[8] = after lung vascular disease established, 50 mg/kg daily for 3 weeks (21 days)
[9] = established severe PAH, treated for two weeks

Structure (SMILES): CCN(CC)C(=O)N1CCN(C)CC1 [DEC, diethylcarbamazine]
muscularization of pulmonary arterioles [1, 7]: blunted
number of fully obliterated lung vessels [1, 7]: reduced
occluded vessels (FIGS. 8A-C) ([1]; SuHx+DEC vs SuHx): reopens occluded vessels
degree of PAH [1, 8]: reduced
degree of perivascular inflammation [1, 8]: reduced
number of obliterated arterioles [1, 8]: reduced

Structure (SMILES): CN(Cc1cnc2nc(N)nc(N)c2n1)c1ccc(C(=O)N[C@@H](CCC(=O)O)C(=O)O)cc1 [MTX, Methotrexate]
reversal of the PH [2]: did not reverse the PH
survival [2]: prolonged survival
progression of the disease (PVOD) ([2]; low dose MTX): arrested the proliferative progression; also recorded: halted

Structure (SMILES): O=c1c(O)c(-c2ccc(O)c(O)c2)oc2cc(O)cc(O)c12 [Quercetin]
vascular remodeling in rodent models of PH (rodent models of PH): inhibit

induction of some cytochrome P450 isozyme genes [3]: more than 200 fold
Structure (SMILES): Cc1cc(C)c(/C=C2\C(=O)Nc3ccccc32)[nH]1 [Sugen 5416]

Structure (SMILES): [NH4+].[NH4+].[SH-].[SH-].[S]=[Mo]=[S] [TTM, ammonium tetrathiomolybdate]
expression of integrin protein alpha v beta 3 in lung (FIGS. 4A, B) ([1]; 10 mg/kg every other day for 10 days): reduced; also recorded: normalized
lung vessel lumina / arterioles (immunohistochemistry, FIG. 2) ([1]; 10 mg/kg every other day for 10 days, intraperitoneal, SuHx+TTM vs SuHx): reopened; also recorded: reopens lung arterioles
number of c-kit+ precursor cells in the lung vascular lesions (FIG. 5) ([1]; 10 mg/kg every other day for 10 days, vs SuHx-vehicle): reduced the number of c-kit+ precursor cells
expression of anoikis marker protein BIM in lung tissue (FIG. 3) ([1]; SuHx-TTM vs SuHx, referenced to beta-actin): upregulated
anoikis, evidenced by cells expressing the marker BIM ([1]; TTM-treated SuHx rats): induced anoikis
occluded lung vessels [1, 9]: reopening of occluded lung vessels
pulmonary arterial pressure [1, 9]: cut the pulmonary arterial pressure in half
reversal of established severe PAH [1, 9]: reversed the PAH

Structure (SMILES): O=C(O)[C@H]1O[C@@H](Oc2cc3oc(-c4ccccc4)cc(=O)c3c(O)c2O)[C@H](O)[C@@H](O)[C@@H]1O [baicalin]
colon cancer (colon cancer): inhibit colon cancer
angiogenesis (angiogenesis): inhibit angiogenesis
monocrotaline-induced pulmonary hypertension [4]: attenuate
silica-induced lung inflammation and fibrosis [5]: alleviate

Structure (SMILES): S=C(S)N1CCCC1 [pyrrolidine dithiocarbamate]
reversal of established angio-obliterative PAH [6]: reverse established angio-obliterative PAH
